Source: PubChem BioAssay (NCI)
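Cells were grown in 96-well plates and exposed to each compound for 48 hours at five concentrations; endpoints were interpolated linearly between bracketing concentrations, or set to the highest concentration if not reached. Here, GI50 denotes the concentration required for 50% inhibition of growth. TGI is the concentration that stops growth completely.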

What was measured:
Assay in all cases: inhibition of tumour cell growth, NCI panel, 48 h
[1] = test system: OVCAR-5 ovarian
[2] = test system: OVCAR-3 ovarian
[3] = test system: A549 NSCLC
[4] = test system: NCI/ADR-RES ovarian
[5] = test system: HOP-62 NSCLC
[6] = test system: ACHN renal
[7] = test system: SK-MEL-5 melanoma
[8] = test system: SK-MEL-2 melanoma
[9] = test system: HCT-15 colon
[10] = test system: COLO 205 colon
[11] = test system: KM12 colon
[12] = test system: RXF 393 renal
[13] = test system: HS 578T breast
[14] = test system: SNB-19 CNS
[15] = test system: M14 melanoma
[16] = test system: T-47D breast
[17] = test system: MDA-MB-231 breast
[18] = test system: UACC-62 melanoma
[19] = test system: IGROV1 ovarian
[20] = test system: MOLT-4 leukemia
[21] = test system: K-562 leukemia
[22] = test system: DU-145 prostate
[23] = test system: SW-620 colon
[24] = test system: OVCAR-8 ovarian
[25] = test system: MCF7 breast
[26] = test system: BT-549 breast
[27] = test system: NCI-H226 lung
[28] = test system: SK-OV-3 ovarian
[29] = test system: NCI-H460 lung
[30] = test system: NCI-H23 lung
[31] = test system: UACC-257 melanoma
[32] = test system: SN12C renal
[33] = test system: PC-3 prostate
[34] = test system: LOX IMVI melanoma
[35] = test system: MALME-3M melanoma
[36] = test system: SF-268 CNS
[37] = test system: SK-MEL-28 melanoma
[38] = test system: RPMI-8226 leukemia
[39] = test system: HOP-92 NSCLC
[40] = test system: SF-539 CNS
[41] = test system: MDA-MB-435
[42] = test system: 786-0 renal
[43] = test system: HCT-116 colon
[44] = test system: HT29 colon
[45] = test system: SF-295 CNS
[46] = test system: NCI-H522 lung
[47] = test system: TK-10 renal
[48] = test system: UO-31 renal
[49] = test system: A498 renal
[50] = test system: HCC-2998 colon
[51] = test system: U251 CNS
[52] = test system: SR leukemia
[53] = test system: CCRF-CEM leukemia
[54] = test system: SNB-75 CNS
[55] = test system: CAKI-1 renal
[56] = test system: HL-60(TB) leukemia
[57] = test system: OVCAR-4 ovarian
[58] = test system: EKVX NSCLC

CCOc1nc(-c2ccccc2)cc2c(O)c(-c3nnco3)[nH]c(=O)c12
GI50 [1]: > 82.3 µM | TGI [1]: > 100 µM | GI50 [2]: 4.42 µM | TGI [2]: > 100 µM | GI50 [3]: 4.55 µM | TGI [3]: > 100 µM | GI50 [4]: 3.4 µM | TGI [4]: > 100 µM | GI50 [5]: 4.12 µM | TGI [5]: > 100 µM | GI50 [6]: 5.02 µM | TGI [6]: > 100 µM | GI50 [7]: 2.16 µM | TGI [7]: 8.18 µM | GI50 [8]: 9.4 µM | TGI [8]: > 46.9 µM | GI50 [9]: 3.66 µM | TGI [9]: > 100 µM | GI50 [10]: 5.74 µM | TGI [10]: > 100 µM | GI50 [11]: 4.14 µM | TGI [11]: > 100 µM | GI50 [12]: 3.71 µM | TGI [12]: 25.2 µM | GI50 [13]: 5.39 µM | TGI [13]: 30.1 µM | GI50 [14]: 6.13 µM | TGI [14]: > 62.4 µM | GI50 [15]: 7.12 µM | TGI [15]: > 100 µM | GI50 [16]: 0.251 µM | TGI [16]: 9.93 µM | GI50 [17]: 1.66 µM | TGI [17]: > 29.8 µM | GI50 [18]: 6.47 µM | TGI [18]: > 100 µM | GI50 [19]: 3.63 µM | TGI [19]: > 89.8 µM | GI50 [20]: 4.9 µM | TGI [20]: > 100 µM | GI50 [21]: 4.83 µM | TGI [21]: > 100 µM | GI50 [22]: 5.3 µM | TGI [22]: > 100 µM | GI50 [23]: 3.6 µM | TGI [23]: > 100 µM | GI50 [24]: 4.24 µM | TGI [24]: > 100 µM | GI50 [25]: 0.507 µM | TGI [25]: > 100 µM | GI50 [26]: 3.23 µM | TGI [26]: > 100 µM | GI50 [27]: 6.25 µM | TGI [27]: > 100 µM | GI50 [28]: 10 µM | TGI [28]: 75.9 µM | GI50 [29]: 4.01 µM | TGI [29]: > 100 µM | GI50 [30]: 4.01 µM | TGI [30]: > 100 µM | GI50 [31]: 3.2 µM | TGI [31]: > 100 µM | GI50 [32]: 3.27 µM | TGI [32]: > 100 µM | GI50 [33]: 4.3 µM | TGI [33]: > 100 µM | GI50 [34]: 4.4 µM | TGI [34]: > 100 µM | GI50 [35]: 7.58 µM | TGI [35]: > 100 µM | GI50 [36]: 5.62 µM | TGI [36]: > 100 µM | GI50 [37]: 30.9 µM | TGI [37]: > 100 µM | GI50 [38]: 4.11 µM | TGI [38]: > 100 µM | GI50 [39]: 1.24 µM | TGI [39]: 6.97 µM | GI50 [40]: 4.39 µM | TGI [40]: > 47.1 µM | GI50 [41]: 8.48 µM | TGI [41]: > 100 µM | GI50 [42]: 6.17 µM | TGI [42]: 31.9 µM | GI50 [43]: 6.07 µM | TGI [43]: > 100 µM | GI50 [44]: > 100 µM | TGI [44]: > 100 µM | GI50 [45]: 4.28 µM | TGI [45]: > 54.4 µM | GI50 [46]: 3.09 µM | TGI [46]: > 100 µM | GI50 [47]: 4.59 µM | TGI [47]: 35.2 µM | GI50 [48]: 2.11 µM | TGI [48]: > 100 µM | GI50 [49]: 2.56 µM | TGI [49]: 58 µM | GI50 [50]: 5.57 µM | TGI [50]: > 100 µM | GI50 [51]: 4.41 µM | TGI [51]: > 43.7 µM | GI50 [52]: 3.85 µM | TGI [52]: > 100 µM | GI50 [53]: 3.04 µM | TGI [53]: > 100 µM | GI50 [54]: 1.92 µM | TGI [54]: 8.99 µM | GI50 [55]: 4.15 µM | TGI [55]: > 100 µM | GI50 [56]: 5.86 µM | TGI [56]: > 100 µM

O=S(=O)(Nc1cc(F)cc(Cl)c1)c1ccc(-c2cnc(C3CC3)o2)cc1
GI50 [1]: 4.43 µM | TGI [1]: 21.5 µM | GI50 [2]: 0.489 µM | TGI [2]: 12.2 µM | GI50 [3]: 1.9 µM | TGI [3]: 19.7 µM | GI50 [4]: 1.08 µM | TGI [4]: 15.5 µM | GI50 [5]: 1.56 µM | TGI [5]: 17.7 µM | GI50 [6]: 4.67 µM | TGI [6]: 45 µM | GI50 [7]: 1.83 µM | TGI [7]: 11.7 µM | GI50 [8]: 4.66 µM | TGI [8]: 26.9 µM | GI50 [9]: 0.529 µM | TGI [9]: 17 µM | GI50 [57]: 5.64 µM | TGI [57]: 21.9 µM | GI50 [10]: 1.59 µM | TGI [10]: 11.8 µM | GI50 [11]: 0.614 µM | TGI [11]: 16.7 µM | GI50 [12]: 1.07 µM | TGI [12]: 6.93 µM | GI50 [13]: 1.02 µM | TGI [13]: 17.2 µM | GI50 [14]: 1.46 µM | TGI [14]: 16.7 µM | GI50 [15]: 0.923 µM | TGI [15]: 15.5 µM | GI50 [58]: 4.86 µM | TGI [58]: 39.1 µM | GI50 [16]: 1.7 µM | TGI [16]: 33.5 µM | GI50 [17]: 4.14 µM | TGI [17]: 19.3 µM | GI50 [18]: 0.458 µM | TGI [18]: 14.5 µM | GI50 [19]: 0.771 µM | TGI [19]: 17.5 µM | GI50 [20]: 2.55 µM | TGI [20]: > 100 µM | GI50 [21]: 0.422 µM | TGI [21]: > 100 µM | GI50 [22]: 3.58 µM | TGI [22]: 23.2 µM | GI50 [23]: 0.599 µM | TGI [23]: 15.5 µM | GI50 [24]: 3.72 µM | TGI [24]: 21.5 µM | GI50 [25]: 0.485 µM | TGI [25]: 23 µM | GI50 [26]: 0.933 µM | TGI [26]: 18.8 µM | GI50 [27]: 3.46 µM | TGI [27]: 17.9 µM | GI50 [28]: 4.84 µM | TGI [28]: 25.9 µM | GI50 [29]: 0.64 µM | TGI [29]: 13.8 µM | GI50 [30]: 2.62 µM | TGI [30]: 18.3 µM | GI50 [31]: 13.6 µM | TGI [31]: 34.9 µM | GI50 [32]: 3.49 µM | TGI [32]: 17.4 µM | GI50 [33]: 1.25 µM | TGI [33]: 14.3 µM | GI50 [34]: 2.5 µM | TGI [34]: 20.8 µM | GI50 [35]: 2.53 µM | TGI [35]: 28 µM | GI50 [36]: 6.47 µM | TGI [36]: 26.2 µM | GI50 [37]: 10.3 µM | TGI [37]: 23.7 µM | GI50 [38]: 2.74 µM | TGI [38]: 40.6 µM | GI50 [39]: 0.979 µM | TGI [39]: 8.45 µM | GI50 [40]: 1.25 µM | TGI [40]: 10.5 µM | GI50 [41]: 0.274 µM | TGI [41]: 1.22 µM | GI50 [42]: 4.88 µM | TGI [42]: 20.9 µM | GI50 [43]: 0.719 µM | TGI [43]: 16.4 µM | GI50 [44]: 0.515 µM | TGI [44]: 10.6 µM | GI50 [45]: 0.389 µM | TGI [45]: 10.3 µM | GI50 [46]: 1.09 µM | TGI [46]: 16.5 µM | GI50 [47]: 6.29 µM | TGI [47]: 29.6 µM | GI50 [48]: 2.96 µM | TGI [48]: 17.6 µM | GI50 [50]: 3.71 µM | TGI [50]: 18.7 µM | GI50 [51]: 1.55 µM | TGI [51]: 15.2 µM | GI50 [52]: 0.462 µM | TGI [52]: > 100 µM | GI50 [53]: 1.71 µM | TGI [53]: > 100 µM | GI50 [54]: 0.344 µM | TGI [54]: 3.33 µM | GI50 [55]: 0.595 µM | TGI [55]: 17.5 µM | GI50 [56]: 0.761 µM | TGI [56]: 24.2 µM
